The compounds below were run on wild type HIV-1 (assay: microbe, parasite or virus in culture). Settings: Human immunodeficiency virus 1, Hela-JC53, read-out: EC50 WT.
Type: cell-based, human immunodeficiency virus type 1 (HIV-1)

`CCc1ccc(-n2c(Br)nnc2SCC(=O)Nc2ccc(S(N)(=O)=O)cc2Br)c2ccccc12` [compound 73] and `COc1ccc2c(C)ccc(-n3c(Br)nnc3SCC(=O)Nc3ccc(S(N)(=O)=O)cc3Br)c2c1` [compound 74] cannot be ordered by EC50: < 50 nM for the first, < 50 nM for the second.

`NS(=O)(=O)c1ccc(NC(=O)CSc2nnc(Br)n2-c2ccc(C3CC3)cc2Cl)c(Cl)c1` [compound 75] and `Cc1cc(S(N)(=O)=O)ccc1NC(=O)CSc1nnc(Br)n1-c1c(Cl)cc(C2CCC2)c2ccccc12` [compound 92] cannot be ordered by EC50: < 50 nM for the first, < 50 nM for the second.

`Cc1cc(C)c2ccccc2c1-n1c(SCC(=O)Nc2ccc(S(N)(=O)=O)cc2Cl)nnc1C(F)(F)F` [compound 83] and `CCc1ccc(-n2c(Br)nnc2SCC(=O)Nc2ccc(C(=O)NCC(=O)OC)cc2Cl)c2ccccc12` [compound 98] cannot be ordered by EC50: < 50 nM for the first, < 50 nM for the second.

`CCOC(=O)CNC(=O)c1ccc(NC(=O)CSc2nnc(Br)n2-c2ccc(C3CC3)c3ccccc23)c(Cl)c1` [compound 101] and `CCOC(=O)CCNC(=O)c1ccc(NC(=O)CSc2nnc(Br)n2-c2ccc(C3CC3)c3ccccc23)c(Cl)c1` [compound 104] cannot be ordered by EC50: < 50 nM for the first, < 50 nM for the second.

`CCc1ccc(-n2c(Br)nnc2SCC(=O)Nc2ccc(C(=O)N[C@H](C(=O)OC)C(C)C)cc2Cl)c2ccccc12` [compound 102] and `COC(=O)[C@@H](NC(=O)c1ccc(NC(=O)CSc2nnc(Br)n2-c2ccc(C3CC3)c3ccccc23)c(Cl)c1)C(C)C` [compound 103] cannot be ordered by EC50: < 50 nM for the first, < 50 nM for the second.

`CCc1ccc(-n2c(Br)nnc2SCC(=O)Nc2ccc(C(=O)NCC(=O)O)cc2Cl)c2ccccc12` [compound 105] and `O=C(O)CNC(=O)c1ccc(NC(=O)CSc2nnc(Br)n2-c2ccc(C3CC3)c3ccccc23)c(Cl)c1` [compound 110] cannot be ordered by EC50: < 50 nM for the first, < 50 nM for the second.

`CC(C)[C@H](NC(=O)c1ccc(NC(=O)CSc2nnc(Br)n2-c2ccc(C3CC3)c3ccccc23)c(Cl)c1)C(=O)O` [compound 106] and `CCOC(=O)CN(C)C(=O)c1ccc(NC(=O)CSc2nnc(Br)n2-c2ccc(C3CC3)c3ccccc23)c(Cl)c1` [compound 109] cannot be ordered by EC50: < 50 nM for the first, < 50 nM for the second.

`CCOC(=O)CCNC(=O)c1ccc(NC(=O)CSc2nnc(Br)n2-c2ccc(CC)c3ccccc23)c(Cl)c1` [compound 107] and `CCOC(=O)CN(C)C(=O)c1ccc(NC(=O)CSc2nnc(Br)n2-c2ccc(CC)c3ccccc23)c(Cl)c1` [compound 108] cannot be ordered by EC50: < 50 nM for the first, < 50 nM for the second.

The compounds below were run against T1, wild-type HIV reverse transcriptase (Human immunodeficiency virus type 1 group M subtype B, UniProt P04585) (assay: Activity on wild type reverse transcriptase (Table 1 IC50 WT)). Settings: not given.
T1 construct: wild-type and four mutant HIV reverse transcriptases
Type: biochemical
Method: Using similar methods as described above, 2-[5-bromo-4-(4-cyclopropylnaphthalen-1-yl)-4H-[1,2,4]triazol-3-ylsulfanyl]-N-(2-methyl-4-sulfamoylphenyeacetamide and 2-[5-bromo-4-(4-ethylnaphthalen-1-yl)-4H-[1,2,4]triazol-3-ylsulfanyl]-N-(2-chloro-4-sulfamoylphenyl)-acetamide were synthesized, as were the N-4-carbamyl analog, 2-[5-bromo-4-(4-ethyl-naphthalen-1-yl)-4H-[1,2,4]triazol-3-ylsulfanyl]-N-(2-chloro-4-carbamoylphenyl)-acetamide and the N-4-carboxyl analog. Each of the compounds was tested against a panel of mutant HIV reverse transcriptases, including 20 of the 22 of the mutants that are found in about 2% or more of the patient samples that are resistant to the most widely used non-nucleoside HIV-RT inhibitor efavirenz ((4S)-6-chloro-4-(cyclopropylethynyl)-1,4-dihydro-4-(trifluoromethyl)-2H-3,1-benzoxazin-2-one). […] In most cases both criteria were met. […] […].
Compounds of the invention were tested against the wild-type and four mutant HIV reverse transcriptases. The results are listed in Table 1 as EC50 (nM) and IC50 (nM). In the Table, A represents <50 nM, B is between 50 and 100 nM, and C is >100 nM. ND is not determined.

`CCc1ccc(-n2c(Br)nnc2SCC(=O)Nc2ccc(S(N)(=O)=O)cc2Br)c2ccccc12` [compound 73] and `COc1ccc2c(C)ccc(-n3c(Br)nnc3SCC(=O)Nc3ccc(S(N)(=O)=O)cc3Br)c2c1` [compound 74] cannot be ordered by IC50: < 50 nM for the first, < 50 nM for the second.

`NS(=O)(=O)c1ccc(NC(=O)CSc2nnc(Br)n2-c2ccc(C3CC3)cc2Cl)c(Cl)c1` [compound 75] and `Cc1cc(S(N)(=O)=O)ccc1NC(=O)CSc1nnc(Br)n1-c1c(Cl)cc(C2CCC2)c2ccccc12` [compound 92] cannot be ordered by IC50: < 50 nM for the first, < 50 nM for the second.

`Cc1cc(C)c2ccccc2c1-n1c(SCC(=O)Nc2ccc(S(N)(=O)=O)cc2Cl)nnc1C(F)(F)F` [compound 83] and `CCc1ccc(-n2c(Br)nnc2SCC(=O)Nc2ccc(C(=O)NCC(=O)OC)cc2Cl)c2ccccc12` [compound 98] cannot be ordered by IC50: < 50 nM for the first, < 50 nM for the second.

`CCOC(=O)CNC(=O)c1ccc(NC(=O)CSc2nnc(Br)n2-c2ccc(C3CC3)c3ccccc23)c(Cl)c1` [compound 101] and `CCOC(=O)CCNC(=O)c1ccc(NC(=O)CSc2nnc(Br)n2-c2ccc(C3CC3)c3ccccc23)c(Cl)c1` [compound 104] cannot be ordered by IC50: < 50 nM for the first, < 50 nM for the second.

First: CCc1ccc(-n2c(Br)nnc2SCC(=O)Nc2ccc(C(=O)N[C@H](C(=O)OC)C(C)C)cc2Cl)c2ccccc12 [compound 102]
Second: COC(=O)[C@@H](NC(=O)c1ccc(NC(=O)CSc2nnc(Br)n2-c2ccc(C3CC3)c3ccccc23)c(Cl)c1)C(C)C [compound 103]
The IC50 of the first is higher: 50 to 100 nM for the first, < 50 nM for the second. The second is the more potent here.

`CCc1ccc(-n2c(Br)nnc2SCC(=O)Nc2ccc(C(=O)NCC(=O)O)cc2Cl)c2ccccc12` [compound 105] and `O=C(O)CNC(=O)c1ccc(NC(=O)CSc2nnc(Br)n2-c2ccc(C3CC3)c3ccccc23)c(Cl)c1` [compound 110] cannot be ordered by IC50: < 50 nM for the first, < 50 nM for the second.

`CC(C)[C@H](NC(=O)c1ccc(NC(=O)CSc2nnc(Br)n2-c2ccc(C3CC3)c3ccccc23)c(Cl)c1)C(=O)O` [compound 106] and `CCOC(=O)CN(C)C(=O)c1ccc(NC(=O)CSc2nnc(Br)n2-c2ccc(C3CC3)c3ccccc23)c(Cl)c1` [compound 109] fall in the same range of IC50: 50 to 100 nM for the first, 50 to 100 nM for the second.

`CCOC(=O)CCNC(=O)c1ccc(NC(=O)CSc2nnc(Br)n2-c2ccc(CC)c3ccccc23)c(Cl)c1` [compound 107] and `CCOC(=O)CN(C)C(=O)c1ccc(NC(=O)CSc2nnc(Br)n2-c2ccc(CC)c3ccccc23)c(Cl)c1` [compound 108] cannot be ordered by IC50: < 50 nM for the first, < 50 nM for the second.

Each compound was assayed against mutant HIV reverse transcriptases (Human immunodeficiency virus type 1, UniProt P12497, Y768C, cells depend on it) (assay: not given). Settings: not given.
Type: cell-based

`CCc1ccc(-n2c(Br)nnc2SCC(=O)Nc2ccc(S(N)(=O)=O)cc2Br)c2ccccc12` [compound 73] and `COc1ccc2c(C)ccc(-n3c(Br)nnc3SCC(=O)Nc3ccc(S(N)(=O)=O)cc3Br)c2c1` [compound 74] cannot be ordered by EC50: < 50 nM for the first, < 50 nM for the second.

`NS(=O)(=O)c1ccc(NC(=O)CSc2nnc(Br)n2-c2ccc(C3CC3)cc2Cl)c(Cl)c1` [compound 75] and `Cc1cc(S(N)(=O)=O)ccc1NC(=O)CSc1nnc(Br)n1-c1c(Cl)cc(C2CCC2)c2ccccc12` [compound 92] cannot be ordered by EC50: < 50 nM for the first, < 50 nM for the second.

`Cc1cc(C)c2ccccc2c1-n1c(SCC(=O)Nc2ccc(S(N)(=O)=O)cc2Cl)nnc1C(F)(F)F` [compound 83] and `CCc1ccc(-n2c(Br)nnc2SCC(=O)Nc2ccc(C(=O)NCC(=O)OC)cc2Cl)c2ccccc12` [compound 98] cannot be ordered by EC50: < 50 nM for the first, < 50 nM for the second.

`CCOC(=O)CNC(=O)c1ccc(NC(=O)CSc2nnc(Br)n2-c2ccc(C3CC3)c3ccccc23)c(Cl)c1` [compound 101] and `CCOC(=O)CCNC(=O)c1ccc(NC(=O)CSc2nnc(Br)n2-c2ccc(C3CC3)c3ccccc23)c(Cl)c1` [compound 104] cannot be ordered by EC50: < 50 nM for the first, < 50 nM for the second.

`CCc1ccc(-n2c(Br)nnc2SCC(=O)Nc2ccc(C(=O)N[C@H](C(=O)OC)C(C)C)cc2Cl)c2ccccc12` [compound 102] and `COC(=O)[C@@H](NC(=O)c1ccc(NC(=O)CSc2nnc(Br)n2-c2ccc(C3CC3)c3ccccc23)c(Cl)c1)C(C)C` [compound 103] cannot be ordered by EC50: < 50 nM for the first, < 50 nM for the second.

First: CCc1ccc(-n2c(Br)nnc2SCC(=O)Nc2ccc(C(=O)NCC(=O)O)cc2Cl)c2ccccc12 [compound 105]
Second: O=C(O)CNC(=O)c1ccc(NC(=O)CSc2nnc(Br)n2-c2ccc(C3CC3)c3ccccc23)c(Cl)c1 [compound 110]
The EC50 of the first is lower: < 50 nM for the first, > 100 nM for the second.

Compared with `CC(C)[C@H](NC(=O)c1ccc(NC(=O)CSc2nnc(Br)n2-c2ccc(C3CC3)c3ccccc23)c(Cl)c1)C(=O)O` [compound 106], `CCOC(=O)CN(C)C(=O)c1ccc(NC(=O)CSc2nnc(Br)n2-c2ccc(C3CC3)c3ccccc23)c(Cl)c1` [compound 109] is lower in EC50: > 100 nM for the first, < 50 nM for the second.

`CCOC(=O)CCNC(=O)c1ccc(NC(=O)CSc2nnc(Br)n2-c2ccc(CC)c3ccccc23)c(Cl)c1` [compound 107] and `CCOC(=O)CN(C)C(=O)c1ccc(NC(=O)CSc2nnc(Br)n2-c2ccc(CC)c3ccccc23)c(Cl)c1` [compound 108] cannot be ordered by EC50: < 50 nM for the first, < 50 nM for the second.

Each compound was assayed against mutant HIV reverse transcriptases (Human immunodeficiency virus type 1, UniProt P12497, Y775L, cells depend on it) (assay: not given). Settings: not given.
Type: cell-based

`CCc1ccc(-n2c(Br)nnc2SCC(=O)Nc2ccc(S(N)(=O)=O)cc2Br)c2ccccc12` [compound 73] and `COc1ccc2c(C)ccc(-n3c(Br)nnc3SCC(=O)Nc3ccc(S(N)(=O)=O)cc3Br)c2c1` [compound 74] cannot be ordered by EC50: < 50 nM for the first, < 50 nM for the second.

`NS(=O)(=O)c1ccc(NC(=O)CSc2nnc(Br)n2-c2ccc(C3CC3)cc2Cl)c(Cl)c1` [compound 75] and `Cc1cc(S(N)(=O)=O)ccc1NC(=O)CSc1nnc(Br)n1-c1c(Cl)cc(C2CCC2)c2ccccc12` [compound 92] cannot be ordered by EC50: < 50 nM for the first, < 50 nM for the second.

`Cc1cc(C)c2ccccc2c1-n1c(SCC(=O)Nc2ccc(S(N)(=O)=O)cc2Cl)nnc1C(F)(F)F` [compound 83] and `CCc1ccc(-n2c(Br)nnc2SCC(=O)Nc2ccc(C(=O)NCC(=O)OC)cc2Cl)c2ccccc12` [compound 98] cannot be ordered by EC50: < 50 nM for the first, < 50 nM for the second.

`CCOC(=O)CNC(=O)c1ccc(NC(=O)CSc2nnc(Br)n2-c2ccc(C3CC3)c3ccccc23)c(Cl)c1` [compound 101] and `CCOC(=O)CCNC(=O)c1ccc(NC(=O)CSc2nnc(Br)n2-c2ccc(C3CC3)c3ccccc23)c(Cl)c1` [compound 104] cannot be ordered by EC50: < 50 nM for the first, < 50 nM for the second.

First: CCc1ccc(-n2c(Br)nnc2SCC(=O)Nc2ccc(C(=O)N[C@H](C(=O)OC)C(C)C)cc2Cl)c2ccccc12 [compound 102]
Second: COC(=O)[C@@H](NC(=O)c1ccc(NC(=O)CSc2nnc(Br)n2-c2ccc(C3CC3)c3ccccc23)c(Cl)c1)C(C)C [compound 103]
The EC50 of the first is lower: < 50 nM for the first, 50 to 100 nM for the second. The first is the more potent here.

First: CCc1ccc(-n2c(Br)nnc2SCC(=O)Nc2ccc(C(=O)NCC(=O)O)cc2Cl)c2ccccc12 [compound 105]
Second: O=C(O)CNC(=O)c1ccc(NC(=O)CSc2nnc(Br)n2-c2ccc(C3CC3)c3ccccc23)c(Cl)c1 [compound 110]
The EC50 of the first is lower: 50 to 100 nM for the first, > 100 nM for the second.

First: CC(C)[C@H](NC(=O)c1ccc(NC(=O)CSc2nnc(Br)n2-c2ccc(C3CC3)c3ccccc23)c(Cl)c1)C(=O)O [compound 106]
Second: CCOC(=O)CN(C)C(=O)c1ccc(NC(=O)CSc2nnc(Br)n2-c2ccc(C3CC3)c3ccccc23)c(Cl)c1 [compound 109]
The EC50 of the first is higher: 50 to 100 nM for the first, < 50 nM for the second. The second is the more potent here.

Going from `CCOC(=O)CCNC(=O)c1ccc(NC(=O)CSc2nnc(Br)n2-c2ccc(CC)c3ccccc23)c(Cl)c1` [compound 107] to `CCOC(=O)CN(C)C(=O)c1ccc(NC(=O)CSc2nnc(Br)n2-c2ccc(CC)c3ccccc23)c(Cl)c1` [compound 108], the EC50 falls from > 100 nM to < 50 nM.

Source: patent US8946273B2, “S-Triazolyl alpha-mercapto acetanilides as inhibitors of HIV reverse transcriptase” (priority 2011, dated 2015)
